Calls of active or inactive are those of the source.
Legend:
[1] = molecular target: 5-hydroxytryptamine receptor 5A (Homo sapiens, UniProt P47898); experiment: Counterscreen for agonists of OPRM1-OPRD1 heterodimerization: luminescence-based cell-based high throughput dose response assay to identify agonists of 5-hydroxytryptamine (serotonin) 5A receptor (HTR5A). [Related pubchem assays (depositor defined):AID504326, AID504355, AID504692, AID504904, AID504905]; format: functional
[2] = molecular target: Delta-type opioid receptor (Homo sapiens, UniProt P41143); experiment: Counterscreen for agonists of heterodimerization of the mu 1 (OPRM1) and delta 1 (OPRD1) opioid receptors: Luminescence-based cell-based high throughput dose response assay to identify agonists of OPRD1 homodimerization. [Related pubchem assays (depositor defined):AID504326, AID504355, AID504692, AID504904, AID504905]; format: functional
Chain of Delta-type opioid receptor (P41143 whole entry): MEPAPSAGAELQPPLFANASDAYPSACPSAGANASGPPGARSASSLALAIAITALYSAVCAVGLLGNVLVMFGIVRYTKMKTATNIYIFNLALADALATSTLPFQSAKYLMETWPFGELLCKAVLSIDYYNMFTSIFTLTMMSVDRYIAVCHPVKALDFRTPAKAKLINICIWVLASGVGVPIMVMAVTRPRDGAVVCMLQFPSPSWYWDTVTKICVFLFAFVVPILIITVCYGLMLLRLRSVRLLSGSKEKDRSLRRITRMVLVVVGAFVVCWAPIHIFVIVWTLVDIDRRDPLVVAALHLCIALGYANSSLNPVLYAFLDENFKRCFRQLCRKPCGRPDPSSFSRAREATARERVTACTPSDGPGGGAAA

[3] = molecular target: Voltage-gated inwardly rectifying potassium channel KCNH2 (Homo sapiens, UniProt Q12809); settings: Potency;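 note: confirmatory quantitative high-throughput screen measuring inhibition of hERG channel activity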
Chain of Voltage-gated inwardly rectifying potassium channel KCNH2 (Q12809 whole entry): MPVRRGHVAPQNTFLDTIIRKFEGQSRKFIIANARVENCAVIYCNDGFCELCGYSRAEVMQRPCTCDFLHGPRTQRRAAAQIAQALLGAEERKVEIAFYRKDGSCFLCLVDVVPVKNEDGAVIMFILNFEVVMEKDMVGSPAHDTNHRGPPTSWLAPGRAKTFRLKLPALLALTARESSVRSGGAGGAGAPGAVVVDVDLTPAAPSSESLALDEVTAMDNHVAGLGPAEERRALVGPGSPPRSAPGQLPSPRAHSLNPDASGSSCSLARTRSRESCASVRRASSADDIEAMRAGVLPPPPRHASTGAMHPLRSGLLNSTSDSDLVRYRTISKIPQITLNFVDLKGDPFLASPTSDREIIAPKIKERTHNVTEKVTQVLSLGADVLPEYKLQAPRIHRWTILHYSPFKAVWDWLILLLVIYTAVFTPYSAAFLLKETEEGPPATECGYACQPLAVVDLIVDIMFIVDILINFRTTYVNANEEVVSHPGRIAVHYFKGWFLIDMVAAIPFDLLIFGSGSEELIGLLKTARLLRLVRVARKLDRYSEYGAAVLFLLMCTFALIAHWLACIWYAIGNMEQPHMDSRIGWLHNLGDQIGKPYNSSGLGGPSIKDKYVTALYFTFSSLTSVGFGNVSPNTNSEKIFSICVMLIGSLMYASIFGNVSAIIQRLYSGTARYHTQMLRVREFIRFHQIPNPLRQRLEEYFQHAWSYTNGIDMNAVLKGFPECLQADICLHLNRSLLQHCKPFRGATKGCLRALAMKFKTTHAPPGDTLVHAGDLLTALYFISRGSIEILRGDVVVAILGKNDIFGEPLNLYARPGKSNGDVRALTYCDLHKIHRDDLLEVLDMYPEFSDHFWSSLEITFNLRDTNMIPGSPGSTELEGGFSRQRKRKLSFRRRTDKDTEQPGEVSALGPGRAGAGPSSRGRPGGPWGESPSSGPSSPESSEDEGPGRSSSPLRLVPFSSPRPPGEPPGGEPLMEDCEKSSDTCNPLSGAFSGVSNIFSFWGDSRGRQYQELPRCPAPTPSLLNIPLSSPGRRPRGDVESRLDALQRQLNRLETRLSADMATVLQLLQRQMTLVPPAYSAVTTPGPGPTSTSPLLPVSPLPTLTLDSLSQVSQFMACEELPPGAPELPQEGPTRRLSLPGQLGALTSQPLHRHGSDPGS

[4] = molecular target: Mu-type opioid receptor (Homo sapiens, UniProt P35372); experiment: Counterscreen for agonists of heterodimerization of the mu 1 (OPRM1) and delta 1 (OPRD1) opioid receptors: Luminescence-based cell-based high throughput dose response assay to identify agonists of OPRM1 homodimerization.; format: functional;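 note: U2OS cells expressing OPRM1 and beta-arrestin as split beta-galactosidase partners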
Chain of Mu-type opioid receptor (P35372 whole entry): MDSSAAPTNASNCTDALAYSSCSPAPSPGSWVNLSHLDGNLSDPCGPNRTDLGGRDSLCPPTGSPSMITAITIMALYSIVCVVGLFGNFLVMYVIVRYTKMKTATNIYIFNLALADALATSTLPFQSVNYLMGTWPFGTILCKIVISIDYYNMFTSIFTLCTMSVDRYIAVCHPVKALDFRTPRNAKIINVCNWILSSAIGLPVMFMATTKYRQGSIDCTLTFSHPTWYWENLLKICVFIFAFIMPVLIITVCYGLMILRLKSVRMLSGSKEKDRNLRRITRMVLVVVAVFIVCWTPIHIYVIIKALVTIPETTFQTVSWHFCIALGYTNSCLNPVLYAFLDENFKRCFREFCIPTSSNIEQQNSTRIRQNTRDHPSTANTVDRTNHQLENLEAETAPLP

[5] = molecular target: T1, Probable nicotinate-nucleotide adenylyltransferase (Staphylococcus aureus (strain N315), UniProt P65502); format: functional, Staphylococcus aureus subsp. aureus N315;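 for IC50 Mean: confirmatory dose-response retesting of NadD inhibitor hits first found in an ultra-high-throughput screen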
T1 sequence (P65502 whole entry): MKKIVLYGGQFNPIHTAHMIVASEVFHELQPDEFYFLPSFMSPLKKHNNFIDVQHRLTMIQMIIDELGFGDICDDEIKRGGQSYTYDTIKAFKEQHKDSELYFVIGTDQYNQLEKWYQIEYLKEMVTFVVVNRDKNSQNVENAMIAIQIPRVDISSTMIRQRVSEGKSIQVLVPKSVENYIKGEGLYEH

[6] = molecular target: T1, Probable nicotinate-nucleotide adenylyltransferase; format: functional, Staphylococcus aureus subsp. aureus N315; settings: read-out: IC50_Mean
[7] = molecular target: T2, Bcl-2-related protein A1 (Mus musculus, UniProt Q07440); format: functional;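 note: confirmatory dose–response counterscreen on Bfl-1, used to check hits from a UBC13 polyubiquitin inhibitor campaign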
T2 sequence (Q07440 whole entry): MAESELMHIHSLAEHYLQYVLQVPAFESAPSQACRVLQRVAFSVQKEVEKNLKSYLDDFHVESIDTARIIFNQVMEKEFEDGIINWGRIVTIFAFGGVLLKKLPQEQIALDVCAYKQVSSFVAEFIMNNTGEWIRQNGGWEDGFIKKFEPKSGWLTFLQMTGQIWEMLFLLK

[8] = molecular target: T3, Ubiquitin-conjugating enzyme E2 N (Homo sapiens, UniProt P61088); format: functional
T3 sequence (P61088 whole entry): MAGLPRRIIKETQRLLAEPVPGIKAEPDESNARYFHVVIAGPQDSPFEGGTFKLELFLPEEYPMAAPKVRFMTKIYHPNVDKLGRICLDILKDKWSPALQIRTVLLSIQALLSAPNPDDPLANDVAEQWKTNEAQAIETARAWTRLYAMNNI

[9] = molecular target: T4, Endoribonuclease toxin MazF (Escherichia coli K-12, UniProt P0AE70); experiment: fluorescent RNA oligo signal without MazF, dose response, counter-screen for MazEF activator project, biochemical, fluorescence, single-stranded RNase substrate (AID 588502); format: functional
T4 sequence (P0AE70 whole entry): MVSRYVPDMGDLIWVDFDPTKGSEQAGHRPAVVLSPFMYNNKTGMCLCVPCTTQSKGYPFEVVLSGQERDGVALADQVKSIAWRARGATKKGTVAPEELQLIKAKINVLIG

[10] = molecular target: T4, Endoribonuclease toxin MazF; experiment: MazF toxin RNase activators, dose response, biochemical, fluorescence, single-stranded RNA substrate, uHTS hits (AID 588481); format: functional
[11] = molecular target: T3, Ubiquitin-conjugating enzyme E2 N; format: functional; remark: listed apart in the source

Chain of 5-hydroxytryptamine receptor 5A (P47898 whole entry): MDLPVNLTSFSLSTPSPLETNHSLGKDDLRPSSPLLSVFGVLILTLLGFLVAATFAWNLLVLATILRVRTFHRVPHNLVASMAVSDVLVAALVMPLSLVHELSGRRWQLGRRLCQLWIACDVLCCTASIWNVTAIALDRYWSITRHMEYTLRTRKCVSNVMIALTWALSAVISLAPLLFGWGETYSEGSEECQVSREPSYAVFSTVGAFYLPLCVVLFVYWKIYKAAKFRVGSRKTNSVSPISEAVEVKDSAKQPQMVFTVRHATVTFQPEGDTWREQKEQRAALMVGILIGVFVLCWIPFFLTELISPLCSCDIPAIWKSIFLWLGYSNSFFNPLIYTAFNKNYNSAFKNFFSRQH

## CN(C(=O)Cc1ccc(Cl)c(Cl)c1)C(CN1CCCC1)c1cccc(OCC(=O)O)c1 (stereo unspecified)
[1]
  EC50: > 92.5 µM (inactive)
[2]
  EC50: 17.2 µM (inactive)
[3]
  AC50: 35.5 µM (inconclusive)
[4]
  EC50: > 92.5 µM (inactive)

## COc1ccccc1-n1c(SCc2cc(=O)oc3cc(O)ccc23)nc2ccccc2c1=O
[5]
  IC50: 15.2 µM (active)
[6]
  IC50: 40.2 µM (active)

## COc1cc(C2C(C#N)=C(N)Oc3[nH]nc(-c4cccs4)c32)cc(OC)c1O (stereo unspecified)
[7]
  IC50: > 20 µM (inactive)
[8]
  IC50: 1.47 µM (active)
[9]
  EC50: 13.3 µM (active)
[10]
  EC50: > 99 µM (inactive)
[11]
  IC50: 3.38 µM (active)
